Results as given in ChEMBL document CHEMBL5543140 (J Med Chem, 2024).
Active and inactive are the calls of the source. The calls are words filed in the database; no cut-off is given here.

Tests used:
Mus musculus [1] = assay: Psychedelic effect in C57BL/6J mouse assessed as maximal number of 5-HT2A receptor dependent head-twitch responses by visual observation at 1 mg/kg, sc (reference value: 3); format: functional
Mus musculus [2] = assay: Psychedelic effect in C57BL/6J mouse assessed as induction of 5-HT2A receptor dependent head-twitch responses by visual observation at 3 mg/kg, sc in presence of ketanserin 1 mg/kg, sc measured after 24 hrs; format: functional, organism-based
[3] = Ex vivo binding in C57BL/6J mouse brain frontal cortex assessed as specific binding [3H]Cimbi-36 at 1 mg/kg, sc measured after 5 mins by liquid scintillation counting analysis (reference value: 1092 +/- 53); format: functional
[4] = Drug excretion in Wistar rat urine at 1 mg/kg, iv measured upto 48 hrs; format: ADME, organism-based; details: read-out: Drug excretion
[5] = AUClast in beagle dog at 0.4 mg/kg, iv measured upto 24 hrs; format: ADME, organism-based, Canis lupus familiaris; details: in vivo
Hippocampus [6] = assay: Induction of neuroplasticity in C57BL/6J mouse assessed as increase in Homer 1 mRNA expression in brain hippocampus at 3 mg/kg, sc single dose by RT-PCR analysis; format: functional, organism-based
Hippocampus [7] = assay: Induction of neuroplasticity in C57BL/6J mouse assessed as increase in c-Fos mRNA expression in brain hippocampus at 0.3 mg/kg, sc single dose by RT-PCR analysis; format: functional, organism-based
[8] = Cmax in male Sprague-Dawley rat CSF at 1 mg/kg, iv measured upto 8 hrs by LC-MS/MS analysis; format: ADME, organism-based, Cerebrospinal fluid
[9] = Tmax in beagle dog at 2 mg/kg, po measured upto 24 hrs; format: ADME, organism-based, Canis lupus familiaris; details: in vivo
Hippocampus [10] = assay: Induction of neuroplasticity in C57BL/6J mouse assessed as increase in […] mRNA expression in brain hippocampus at 0.3 mg/kg, sc single dose by RT-PCR analysis; format: functional, organism-based
Hippocampus [11] = assay: Induction of neuroplasticity in C57BL/6J mouse assessed as increase in PSD-95 mRNA expression in brain hippocampus at 3 mg/kg, sc single dose by RT-PCR analysis; format: functional, organism-based
[12] = biological target: T1, 5-hydroxytryptamine receptor 1A (Homo sapiens) (UniProt P08908); assay: Displacement of [3H]-8-OH-DPAT from 5-HT1A receptor (unknown origin) assessed as inhibition binding at 10 uM relative to control
T1 sequence (whole entry): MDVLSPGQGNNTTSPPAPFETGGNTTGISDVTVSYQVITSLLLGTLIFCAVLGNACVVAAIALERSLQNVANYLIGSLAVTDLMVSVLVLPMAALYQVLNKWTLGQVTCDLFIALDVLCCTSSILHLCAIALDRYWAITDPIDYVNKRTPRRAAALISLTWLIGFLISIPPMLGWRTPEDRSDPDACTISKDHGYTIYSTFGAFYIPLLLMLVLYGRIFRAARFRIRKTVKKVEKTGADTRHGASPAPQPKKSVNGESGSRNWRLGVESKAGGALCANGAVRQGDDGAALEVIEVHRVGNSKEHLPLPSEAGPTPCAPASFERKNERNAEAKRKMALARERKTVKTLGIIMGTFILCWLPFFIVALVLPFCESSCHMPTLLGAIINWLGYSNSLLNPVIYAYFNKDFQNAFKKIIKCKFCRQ

Hippocampus [13] = assay: Induction of neuroplasticity in C57BL/6J mouse assessed as increase in mTOR mRNA expression in brain hippocampus at 3 mg/kg, sc single dose by RT-PCR analysis; format: functional, organism-based
[14] = Metabolic stability in mouse liver microsomes assessed as half life at 1 uM incubated for 120 mins in presence of NADPH; format: ADME, Microsome
Mus musculus [15] = assay: Psychedelic effect in C57BL/6J mouse assessed as induction of 5-HT2A receptor dependent maximal head-twitch responses by visual observation at 1 to 3 mg/kg, sc at 40 mins post- administration measured upto 360 mins; format: functional, organism-based; details: dose 1-3 mg/kg
[16] = MRTlast in Wistar rat plasma at 5 mg/kg, po measured upto 48 hrs; format: ADME, organism-based
[17] = Cmax in Wistar rat brain at 1 mg/kg, iv measured upto 48 hrs; format: ADME, organism-based
[18] = biological target: 5-hydroxytryptamine receptor 5A (Homo sapiens) (UniProt P47898); assay: Binding affinity to human 5-HT5A receptor (unknown origin) at 10 uM by radioligand displacement assay
Sequence of 5-hydroxytryptamine receptor 5A (Homo sapiens) (P47898 whole entry): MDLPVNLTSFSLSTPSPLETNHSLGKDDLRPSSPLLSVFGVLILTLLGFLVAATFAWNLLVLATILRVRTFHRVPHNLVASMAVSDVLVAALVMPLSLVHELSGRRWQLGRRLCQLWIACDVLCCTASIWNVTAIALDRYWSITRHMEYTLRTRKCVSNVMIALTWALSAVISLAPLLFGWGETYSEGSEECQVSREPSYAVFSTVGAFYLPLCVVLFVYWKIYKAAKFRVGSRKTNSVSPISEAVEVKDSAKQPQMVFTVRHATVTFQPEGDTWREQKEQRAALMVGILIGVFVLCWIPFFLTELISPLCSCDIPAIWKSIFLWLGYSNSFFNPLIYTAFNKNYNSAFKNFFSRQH

[19] = Metabolic stability in dog liver S9 fractions assessed as half life; format: ADME, subcellular, Canis lupus familiaris; details: liver S9 fraction
[20] = biological target: Muscarinic acetylcholine receptor M1 (Homo sapiens) (UniProt P11229); assay: Displacement of [3H]-Pirenzepine from human muscarinic M1 expressed in CHO-K1 cells membrane at 10 uM incubated for 60 mins by microbeta liquid scintillation counting analysis; format: cell membranes; details: Cell membrane
Sequence of Muscarinic acetylcholine receptor M1 (Homo sapiens) (P11229 whole entry): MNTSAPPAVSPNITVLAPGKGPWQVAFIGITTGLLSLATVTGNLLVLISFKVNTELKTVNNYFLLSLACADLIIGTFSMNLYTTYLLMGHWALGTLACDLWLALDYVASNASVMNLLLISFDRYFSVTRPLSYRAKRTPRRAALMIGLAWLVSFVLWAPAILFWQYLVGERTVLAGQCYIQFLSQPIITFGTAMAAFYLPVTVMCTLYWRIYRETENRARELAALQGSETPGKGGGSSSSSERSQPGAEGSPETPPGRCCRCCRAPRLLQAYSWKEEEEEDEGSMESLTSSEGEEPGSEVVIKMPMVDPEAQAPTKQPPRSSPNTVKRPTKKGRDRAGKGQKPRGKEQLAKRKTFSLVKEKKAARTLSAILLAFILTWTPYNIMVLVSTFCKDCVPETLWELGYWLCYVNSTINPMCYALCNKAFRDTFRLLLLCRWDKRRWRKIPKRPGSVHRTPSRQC

[21] = AUClast in male Sprague-Dawley rat plasma at 1 mg/kg, iv measured upto 8 hrs by LC-MS/MS analysis; format: ADME, organism-based
Hippocampus [22] = assay: Induction of neuroplasticity in C57BL/6J mouse assessed as increase in SYN1 mRNA expression in brain hippocampus at 3 mg/kg, sc single dose by RT-PCR analysis; format: functional, organism-based
Mus musculus [23] = assay: Psychedelic effect in C57BL/6J mouse assessed as induction of 5-HT2A receptor dependent maximal head-twitch responses by visual observation at 1 mg/kg, sc at 100 mins; format: functional, organism-based
[24] = biological target: Alpha-2A adrenergic receptor (Homo sapiens, UniProt P08913); assay: Displacement of [3H]-rauwolscine from human recombinant adrenergic alpha-2A receptor expressed in CHO-K1 cells incubated for 60 mins by […] analysis relative to control; format: cell-based
Sequence of Alpha-2A adrenergic receptor (P08913 whole entry): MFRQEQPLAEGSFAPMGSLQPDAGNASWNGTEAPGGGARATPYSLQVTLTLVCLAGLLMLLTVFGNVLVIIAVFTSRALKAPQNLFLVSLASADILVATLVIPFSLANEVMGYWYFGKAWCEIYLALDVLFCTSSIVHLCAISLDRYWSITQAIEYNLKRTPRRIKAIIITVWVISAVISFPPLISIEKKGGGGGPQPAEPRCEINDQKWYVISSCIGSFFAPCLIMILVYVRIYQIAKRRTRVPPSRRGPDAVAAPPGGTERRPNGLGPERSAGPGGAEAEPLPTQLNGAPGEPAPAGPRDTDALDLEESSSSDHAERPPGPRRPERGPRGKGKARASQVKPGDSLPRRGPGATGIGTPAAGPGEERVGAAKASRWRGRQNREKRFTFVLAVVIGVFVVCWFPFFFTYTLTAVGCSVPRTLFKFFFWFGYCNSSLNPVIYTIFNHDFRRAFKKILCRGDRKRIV

Mus musculus [25] = assay: Psychedelic effect in sc dosed C57BL/6J mouse assessed as induction of 5-HT2A receptor dependent head-twitch responses by visual observation measured within 10 mins; format: functional, organism-based; details: dose 0.1-3 mg/kg
Mus musculus [26] = assay: Induction of neuroplasticity in C57BL/6J mouse assessed as increase in BDNF mRNA expression in brain frontal cortex at 3 mg/kg, sc single dose by RT-PCR analysis; format: functional, organism-based
Hippocampus [27] = assay: Induction of neuroplasticity in C57BL/6J mouse assessed as increase in BDNF mRNA expression in brain hippocampus at 3 mg/kg, sc single dose by RT-PCR analysis; format: functional, organism-based
[28] = biological target: 5-hydroxytryptamine receptor 2C (Homo sapiens) (UniProt P28335); assay: Agonist activity at human 5-HT2C receptor expressed in HEK293 cells assessed as maximal IP2 production measured after 30 mins incubation by HTRF assay relative to control; format: functional, cell-based; details: filed as agonist
Sequence of 5-hydroxytryptamine receptor 2C (Homo sapiens) (P28335 whole entry): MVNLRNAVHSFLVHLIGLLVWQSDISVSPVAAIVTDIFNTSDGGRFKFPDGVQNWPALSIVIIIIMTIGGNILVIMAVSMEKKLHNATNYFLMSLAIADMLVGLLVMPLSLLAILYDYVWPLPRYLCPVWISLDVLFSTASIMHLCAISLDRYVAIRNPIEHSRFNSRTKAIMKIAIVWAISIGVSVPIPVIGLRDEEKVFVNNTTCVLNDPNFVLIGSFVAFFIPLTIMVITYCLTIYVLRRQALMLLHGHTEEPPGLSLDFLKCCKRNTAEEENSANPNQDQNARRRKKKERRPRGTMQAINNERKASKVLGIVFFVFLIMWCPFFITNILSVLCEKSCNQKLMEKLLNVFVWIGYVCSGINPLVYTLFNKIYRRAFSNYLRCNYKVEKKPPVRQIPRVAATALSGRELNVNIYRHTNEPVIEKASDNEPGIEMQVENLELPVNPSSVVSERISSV

[29] = Half life in Wistar rat brain at 1 mg/kg, iv measured upto 48 hrs; format: ADME, organism-based
Mus musculus [30] = assay: Induction of neuroplasticity in C57BL/6J mouse assessed as increase in Homer1 mRNA expression in brain frontal cortex at 0.3 mg/kg, sc single dose by RT-PCR analysis; format: functional, organism-based
Mus musculus [31] = assay: Psychedelic effect in C57BL/6J mouse assessed as development of tolerance/ tachyphylaxis at 3 mg/kg, sc measured on day 4 by head-twitch responses test; format: functional, organism-based; details: time 4.0 day
[32] = Brain to plasma ratio in Wistar rat at 5 mg/kg, po measured upto 48 hrs; format: ADME, organism-based; details: brain and plasma, read-out: BPR
[33] = AUCinf in Wistar rat brain at 5 mg/kg, po measured upto 48 hrs; format: ADME, organism-based

COc1cc([Se]C(F)(F)F)c(OC)cc1CCN.Cl
Activity (Mus musculus [1]): 17 | Activity (Mus musculus [2]): inactive | Activity [3]: 947 | dose excreted at 48 h [4]: 0.07% | AUC(0-t) at 24 h [5]: 366 ng·h/mL | Activity (Hippocampus [6]): inactive | Activity (Hippocampus [7]): inactive | Cmax [8]: 48.7 ng/mL | Tmax [9]: 2 h | Activity (Hippocampus [10]): inactive | Activity (Hippocampus [11]): inactive | inhibition [12]: 98% | Activity (Hippocampus [13]): inactive | half-life at 1 µM [14]: > 2 h | Activity (Mus musculus [15]): Active | MRT last at 48 h [16]: 2.25 h | Cmax [17]: 890 ng/mL | Activity [18]: inactive | half-life [19]: > 2 h | inhibition [20]: 88% | AUC(0-t) at 8 h [21]: 207 ng·h/mL | Activity (Hippocampus [22]): inactive | Activity (Mus musculus [23]): Active | Ki [24]: 72 nM | Activity (Mus musculus [25]): Dose-Dependent Effect | Activity (Mus musculus [26]): Active | Activity (Hippocampus [27]): inactive | Emax [28]: 91% | half-life [29]: 2.44 h | Activity (Mus musculus [30]): Active | Activity (Mus musculus [31]): inactive | Kp at 48 h [32]: 57.9 | AUC(0-inf) [33]: 2880 ng·h/mL
